Assay results published in the NIST ThermoML archive (doi:10.1016/j.jct.2012.03.003).
Numbers after ± are expanded uncertainties.

Assay: xn = mol fraction of the nth substance listed
Conditions: Liquid, Vibrating tube method

COc1cc2c(cc1O)CC1c3c(cc(O)c(OC)c3-2)CCN1C (stereo not given) [boldine] + CCO
Conditions	mass density [kg/m3]
313.1 K, 16000 kPa, x1 = 0.0074	801.81 ± 0.88
313.1 K, 17000 kPa, x1 = 0.0074	802.63 ± 0.89
313.1 K, 18000 kPa, x1 = 0.0074	803.44 ± 0.89
313.1 K, 19000 kPa, x1 = 0.0074	804.23 ± 0.89
313.1 K, 20000 kPa, x1 = 0.0074	805 ± 0.89
313.13 K, 1000 kPa, x1 = 0.0136	801.85 ± 0.96
313.13 K, 2000 kPa, x1 = 0.0136	802.69 ± 0.96
313.13 K, 3000 kPa, x1 = 0.0136	803.55 ± 0.96
313.13 K, 4000 kPa, x1 = 0.0136	804.42 ± 0.96
313.13 K, 5000 kPa, x1 = 0.0136	805.28 ± 0.96
313.13 K, 6000 kPa, x1 = 0.0136	806.15 ± 0.96
313.13 K, 7000 kPa, x1 = 0.0136	807.04 ± 0.96
313.13 K, 8000 kPa, x1 = 0.0136	807.92 ± 0.96
313.13 K, 9000 kPa, x1 = 0.0136	808.79 ± 0.96
313.13 K, 10000 kPa, x1 = 0.0136	809.66 ± 0.96
313.13 K, 11000 kPa, x1 = 0.0136	810.53 ± 0.96
313.13 K, 12000 kPa, x1 = 0.0136	811.4 ± 0.97
313.13 K, 13000 kPa, x1 = 0.0136	812.25 ± 0.97
313.13 K, 14000 kPa, x1 = 0.0136	813.1 ± 0.97
313.13 K, 15000 kPa, x1 = 0.0136	813.94 ± 0.97
313.13 K, 16000 kPa, x1 = 0.0136	814.77 ± 0.97
313.13 K, 17000 kPa, x1 = 0.0136	815.58 ± 0.97
313.13 K, 18000 kPa, x1 = 0.0136	816.37 ± 0.97
313.13 K, 19000 kPa, x1 = 0.0136	817.16 ± 0.98
313.13 K, 20000 kPa, x1 = 0.0136	817.92 ± 0.98
323.03 K, 1000 kPa, x1 = 0.0012	766.88 ± 0.87
323.03 K, 2000 kPa, x1 = 0.0012	767.82 ± 0.86
323.03 K, 3000 kPa, x1 = 0.0012	768.76 ± 0.87
323.03 K, 4000 kPa, x1 = 0.0012	769.71 ± 0.87
323.03 K, 5000 kPa, x1 = 0.0012	770.66 ± 0.87
323.03 K, 6000 kPa, x1 = 0.0012	771.62 ± 0.87
323.03 K, 7000 kPa, x1 = 0.0012	772.58 ± 0.87
323.03 K, 8000 kPa, x1 = 0.0012	773.53 ± 0.87
323.03 K, 9000 kPa, x1 = 0.0012	774.49 ± 0.87
323.03 K, 10000 kPa, x1 = 0.0012	775.44 ± 0.88
323.03 K, 11000 kPa, x1 = 0.0012	776.38 ± 0.88
323.03 K, 12000 kPa, x1 = 0.0012	777.32 ± 0.88
323.03 K, 13000 kPa, x1 = 0.0012	778.24 ± 0.88
323.03 K, 14000 kPa, x1 = 0.0012	779.15 ± 0.89
323.03 K, 15000 kPa, x1 = 0.0012	780.06 ± 0.89
323.03 K, 16000 kPa, x1 = 0.0012	780.94 ± 0.89
323.03 K, 17000 kPa, x1 = 0.0012	781.82 ± 0.89
323.03 K, 18000 kPa, x1 = 0.0012	782.68 ± 0.9
323.03 K, 19000 kPa, x1 = 0.0012	783.53 ± 0.9
323.03 K, 20000 kPa, x1 = 0.0012	784.35 ± 0.9
323.04 K, 1000 kPa, x1 = 0.0074	779.9 ± 0.87
323.04 K, 1000 kPa, x1 = 0.0196	808.75 ± 0.85
323.04 K, 2000 kPa, x1 = 0.0074	780.82 ± 0.88
323.04 K, 2000 kPa, x1 = 0.0196	809.64 ± 0.84
323.04 K, 3000 kPa, x1 = 0.0074	781.75 ± 0.88
323.04 K, 3000 kPa, x1 = 0.0196	810.53 ± 0.84
323.04 K, 4000 kPa, x1 = 0.0074	782.68 ± 0.88
323.04 K, 4000 kPa, x1 = 0.0196	811.42 ± 0.84
323.04 K, 5000 kPa, x1 = 0.0074	783.61 ± 0.88
323.04 K, 5000 kPa, x1 = 0.0196	812.32 ± 0.85
323.04 K, 6000 kPa, x1 = 0.0074	784.55 ± 0.88
323.04 K, 6000 kPa, x1 = 0.0196	813.21 ± 0.85
323.04 K, 7000 kPa, x1 = 0.0074	785.48 ± 0.88
323.04 K, 7000 kPa, x1 = 0.0196	814.12 ± 0.85
323.04 K, 8000 kPa, x1 = 0.0074	786.42 ± 0.88
323.04 K, 8000 kPa, x1 = 0.0196	815.02 ± 0.85
323.04 K, 9000 kPa, x1 = 0.0074	787.36 ± 0.88
323.04 K, 9000 kPa, x1 = 0.0196	815.91 ± 0.85
323.04 K, 10000 kPa, x1 = 0.0074	788.29 ± 0.89
323.04 K, 10000 kPa, x1 = 0.0196	816.8 ± 0.85
323.04 K, 11000 kPa, x1 = 0.0074	789.22 ± 0.89
323.04 K, 11000 kPa, x1 = 0.0196	817.69 ± 0.85
323.04 K, 12000 kPa, x1 = 0.0074	790.13 ± 0.89
323.04 K, 12000 kPa, x1 = 0.0196	818.56 ± 0.85
323.04 K, 13000 kPa, x1 = 0.0074	791.03 ± 0.89
323.04 K, 13000 kPa, x1 = 0.0196	819.44 ± 0.85
323.04 K, 14000 kPa, x1 = 0.0074	791.94 ± 0.89
323.04 K, 14000 kPa, x1 = 0.0196	820.29 ± 0.86
323.04 K, 15000 kPa, x1 = 0.0074	792.82 ± 0.9
323.04 K, 15000 kPa, x1 = 0.0196	821.15 ± 0.86
